Tests used:
FRAP1 (mTOR) kinase = molecular target: T1, FRAP1 (mTOR) kinase (Homo sapiens, UniProt P42345); assay: Inhibition of mTOR-induced p-4E-BP1 phosphorylation (TR-FRET mTOR Activity Kit; Invitrogen); type: biochemical; details: 400 nM GFP-4E-BP1 substrate, ~150 ng/mL mTOR, one hour at room temperature
T1 construct: purchased Invitrogen PV4753
Outline: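 LanthaScreen TR-FRET: mTOR with GFP-4E-BP1 substrate in HEPES pH 7.5 buffer with 10 mM MnCl2, compound preincubated 30 min at RT, then ATP added and reacted 1 h at 20-25 °C. Stopped with EDTA plus Tb-anti-p4E-BP1 (pThr46), 1 h; GFP/Tb emission ratio over a 16-point curve, sigmoidal fit for IC50.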

PC-3 cells = assay: Inhibition of proliferation: CyQuant PC-3; type: cell-based; details: 72 h; PC-3 human prostate carcinoma cells, incubated with compounds for 3 days, CyQuant NF DNA dye
Outline: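 PC-3 proliferation read by CyQuant NF: DNA-binding dye with membrane permeabilization reagent added after medium removal, 30-60 min incubation, fluorescence at Ex 485/Em 530 nm. Proliferation judged from cell counts of drug-treated versus untreated controls.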

T1 sequence (P42345 1360-2549 limits assumed): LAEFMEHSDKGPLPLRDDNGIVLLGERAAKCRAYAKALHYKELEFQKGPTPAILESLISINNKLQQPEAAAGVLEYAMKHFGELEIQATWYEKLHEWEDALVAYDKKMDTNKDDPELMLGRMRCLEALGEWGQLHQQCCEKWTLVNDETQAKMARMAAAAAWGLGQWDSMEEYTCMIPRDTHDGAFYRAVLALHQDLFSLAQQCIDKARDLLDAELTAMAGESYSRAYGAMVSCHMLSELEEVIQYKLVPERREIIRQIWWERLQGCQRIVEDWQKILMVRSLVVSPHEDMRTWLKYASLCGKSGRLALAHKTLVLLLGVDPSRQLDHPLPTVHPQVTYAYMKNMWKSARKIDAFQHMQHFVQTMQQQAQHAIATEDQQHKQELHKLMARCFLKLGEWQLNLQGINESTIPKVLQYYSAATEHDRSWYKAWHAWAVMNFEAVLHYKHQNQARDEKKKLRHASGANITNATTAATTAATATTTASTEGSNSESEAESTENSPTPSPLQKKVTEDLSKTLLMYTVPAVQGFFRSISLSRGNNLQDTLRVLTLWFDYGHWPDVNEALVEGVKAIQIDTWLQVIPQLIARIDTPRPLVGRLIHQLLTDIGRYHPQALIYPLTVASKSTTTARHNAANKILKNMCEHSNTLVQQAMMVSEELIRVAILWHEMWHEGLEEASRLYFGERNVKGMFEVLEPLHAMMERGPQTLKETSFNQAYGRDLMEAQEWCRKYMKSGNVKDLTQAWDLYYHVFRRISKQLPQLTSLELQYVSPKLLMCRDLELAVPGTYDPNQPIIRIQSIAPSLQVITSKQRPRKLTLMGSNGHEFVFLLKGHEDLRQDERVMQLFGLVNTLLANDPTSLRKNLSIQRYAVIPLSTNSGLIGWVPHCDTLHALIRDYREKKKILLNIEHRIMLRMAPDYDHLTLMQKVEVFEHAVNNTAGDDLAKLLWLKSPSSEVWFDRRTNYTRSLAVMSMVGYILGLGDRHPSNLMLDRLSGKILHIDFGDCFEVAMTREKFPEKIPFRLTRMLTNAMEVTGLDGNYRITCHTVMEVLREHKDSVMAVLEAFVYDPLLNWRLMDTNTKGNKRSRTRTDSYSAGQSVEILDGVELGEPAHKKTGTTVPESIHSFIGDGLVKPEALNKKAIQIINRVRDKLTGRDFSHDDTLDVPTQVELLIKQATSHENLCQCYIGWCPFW

Row | SMILES | IC50 (FRAP1 (mTOR) kinase) | EC50 (PC-3 cells)
1 | CC(C)n1nc(-c2ccc(N)nc2)c2c1-c1sc(NC(=O)CCCN(C)C)nc1CCC2 [Example B-135, N-[3-(6-Amino-pyridin-3-yl)-1-isopropyl-1,4,5,6-tetrahydro-9-thia-1,2,7-triaza-cyclopenta[e]azulen-8-yl]-4-dimethylamino-butyramide] | 44 nM | 79 nM
2 | CC(=O)Nc1nc2c(s1)-c1c(c(-c3c[nH]c(C)n3)nn1CC(C)C)CCC2 [Example B-121, N-[1-Isobutyl-3-(2-methyl-1H-imidazol-4-yl)-1,4,5,6-tetrahydro-9-thia-1,2,7-triaza-cyclopenta[e]azulen-8-yl]-acetamide] | 35 nM | 73 nM
3 | CC(=O)Nc1nc2c(s1)-c1c(c(-c3c[nH]cn3)nn1CC(C)C)CCC2 [Example B-113] | 9 nM | 29 nM
4 | CCNc1ccc(-c2nn(-c3ccccc3C)c3c2CCCc2nc(NC(=O)NC)sc2-3)cn1 [Example B-68] | 166 nM | 604 nM
5 | CNc1ccc(-c2nn(-c3ccccc3C)c3c2CCCc2nc(NC(C)=O)sc2-3)cn1 [Example B-06, N-[3-(6-Methylamino-pyridin-3-yl)-1-o-tolyl-1,4,5,6-tetrahydro-9-thia-1,2,7-triaza-cyclopenta[e]azulen-8-yl]-acetamide] | 36 nM | 66 nM
6 | CCNc1ccc(-c2nn(CCOC)c3c2CCCc2nc(NC(C)=O)sc2-3)cn1 [Example B-125] | 114 nM | 253 nM
7 | CC(=O)Nc1nc2c(s1)-c1c(c(-c3c[nH]cn3)nn1-c1ccccc1F)CCC2 [Example B-111, N-[1-(2-Fluoro-phenyl)-3-(1H-imidazol-4-yl)-1,4,5,6-tetrahydro-9-thia-1,2,7-triaza-cyclopenta[e]azulen-8-yl]-acetamide] | 4 nM | 38 nM
8 | COCCC(=O)Nc1nc2c(s1)-c1c(c(-c3ccc(N)nc3)nn1CC(C)C)CCC2 [Example B-134] | 60 nM | 143 nM
9 | CNC(=O)Nc1nc2c(s1)-c1c(c(-c3ccc(NC)nc3)nn1-c1cccnc1C)CCC2 [Example B-143, 1-Methyl-3-[3-(6-methylamino-pyridin-3-yl)-1-(2-methyl-pyridin-3-yl)-1,4,5,6-tetrahydro-9-thia-1,2,7-triaza-cyclopent[e]azulen-8-yl]-urea] | 71 nM | 424 nM
10 | CNc1ccc(-c2nn(C(C)C)c3c2CCCc2nc(NC(=O)N(C)C)sc2-3)cn1 [Example B-27] | 501 nM | 328 nM
11 | CCNc1ccc(-c2nn(C(C)C)c3c2CCCc2nc(NC(C)=O)sc2-3)cn1 [Example B-01, N-[3-(6-Ethylamino-pyridin-3-yl)-1-isopropyl-1,4,5,6-tetrahydro-9-thia-1,2,7-triaza-cyclopenta[e]azulen-8-yl]-acetamide] | 151 nM | 308 nM
12 | CNc1ccc(-c2nn(CC(C)C)c3c2CCCc2nc(NC(C)=O)sc2-3)cn1 [Example B-86, N-[1-isobutyl-3-(6-methylamino-pyridin-3-yl)-1,4,5,6-tetrahydro-9-thia-1,2,7-triaza-cyclopenta[e]azulen-8-yl]-acetamide] | 32 nM | 47 nM
13 | CC(=O)Nc1nc2c(s1)-c1c(c(-c3c[nH]cn3)nn1-c1ccccc1C)CCC2 [Example B-112, N-[3-(1H-imidazol-4-yl)-1-o-tolyl-1,4,5,6-tetrahydro-9-thia-1,2,7-triaza-cyclopenta[e]azulen-8-yl]-acetamide] | 39 nM | 110 nM
14 | C=CCn1nc(-c2ccc(NC)nc2)c2c1-c1sc(NC(=O)N(C)C)nc1CCC2 [Example B-47] | 734 nM | 703 nM
15 | Cc1ccccc1-n1nc(-c2ccc(N)nc2)c2c1-c1sc(NC(=O)N(C)C)nc1CCC2 [Example B-55] | 170 nM | 450 nM
16 | CNC(=O)Nc1nc2c(s1)-c1c(c(-c3ccc(N)nc3)nn1-c1ccccc1C)CCC2 [Example B-148, 1-[3-(6-Amino-pyridin-3-yl)-1-o-tolyl-1,4,5,6-tetrahydro-9-thia-1,2,7-triaza-cyclopenta[e]azulen-8-yl]-3-methyl-urea] | 15 nM | 104 nM

Row | SMILES | IC50 (FRAP1 (mTOR) kinase) | EC50 (PC-3 cells)
17 | CC(=O)Nc1nc2c(s1)-c1c(c(-c3ccc(C)nc3)nn1C(C)C)CCC2 [Example B-09, N-[1-Isopropyl-3-(6-methyl-pyridin-3-yl)-1,4,5,6-tetrahydro-9-thia-1,2,7-triaza-cyclopent[e]azulen-8-yl]acetamide] | 266 nM | 334 nM
18 | CNc1ccc(-c2nn(-c3cccc(OC)c3)c3c2CCCc2nc(NC(C)=O)sc2-3)cn1 [Example B-89] | 57 nM | 72 nM
19 | CCNc1ccc(-c2nn(-c3ccccc3C)c3c2CCCc2nc(NC(=O)CCOC)sc2-3)cn1 [Example B-71] | 138 nM | 318 nM
20 | CNc1ccc(-c2nn(CCN3CCOCC3)c3c2CCCc2nc(NC(C)=O)sc2-3)cn1 [Example B-82, N-[3-(6-Methylamino-pyridin-3-yl)-1-(2-morpholin-4-yl-ethyl)-1,4,5,6-tetrahydro-9-thia-1,2,7-triaza-cyclopenta[e]azulen-8-yl]-acetamide] | 33 nM | 49 nM
21 | CC(=O)Nc1nc2c(s1)-c1c(c(-c3ccc(N)nc3)nn1C1CCCOC1)CCC2 (stereo not shown) [Example B-65, N-[3-(6-Amino-pyridin-3-yl)-1-(tetrahydro-pyran-3-yl)-1,4,5,6-tetrahydro-9-thia-1,2,7-triaza-cyclopenta[e]azulen-8-yl]-acetamide] | 13 nM | 75 nM
22 | CC(=O)Nc1nc2c(s1)-c1c(c(-c3c[nH]cn3)nn1-c1ccc(C3(N(C)C)CC3)cc1)CCC2 [Example B-115] | 2 nM | 16 nM
23 | CC(=O)Nc1nc2c(s1)-c1c(c(-c3c[nH]cn3)nn1-c1ccccc1Cl)CCC2 [Example B-116] | 29 nM | 148 nM
24 | CC(=O)Nc1nc2c(s1)-c1c(c(-c3ccc(N)nc3)nn1-c1cccnc1C)CCC2 [Example B-138, N-[3-(6-Amino-pyridin-3-yl)-1-(2-methyl-pyridin-3-yl)-1,4,5,6-tetrahydro-9-thia-1,2,7-triaza-cyclopent[e]azulen-8-yl]acetamide] | 38 nM | 236 nM
25 | CCn1nc(-c2ccc(NC)nc2)c2c1-c1sc(NC(=O)N(C)C)nc1CCC2 [Example B-48] | 451 nM | 710 nM
26 | CC(=O)Nc1nc2c(s1)-c1c(c(-c3ccc(N)nc3)nn1C(C)C)CCC2 [Example B-66, N-[3-(6-Amino-pyridin-3-yl)-1-isopropyl-1,4,5,6-tetrahydro-9-thia-1,2,7-triaza-cyclopenta[e]azulen-8-yl]-acetamide] | 12 nM | 90 nM
27 | COCCn1nc(-c2ccc(N)nc2)c2c1-c1sc(NC(C)=O)nc1CCC2 [Example B-132, N-[3-(6-Amino-pyridin-3-yl)-1-(2-methoxy-ethyl)-1,4,5,6-tetrahydro-9-thia-1,2,7-triaza-cyclopenta[e]azulen-8-yl]-acetamide] | 52 nM | 326 nM
28 | COCC(=O)Nc1nc2c(s1)-c1c(c(-c3ccc(N)nc3)nn1-c1ccccc1F)CCC2 [Example E-18, N-[3-(6-Amino-pyridin-3-yl)-1-(2-fluoro-phenyl)-1,4,5,6-tetrahydro-9-thia-1,2,7-triaza-cyclopenta[e]azulen-8-yl]-2-methoxy-acetamide] | 59 nM | 87 nM
29 | COCCC(=O)Nc1nc2c(s1)-c1c(c(-c3ccc(N)nc3)nn1-c1ccccc1F)CCC2 [Example E-15, N-[3-(6-Amino-pyridin-3-yl)-1-(2-fluoro-phenyl)-1,4,5,6-tetrahydro-9-thia-1,2,7-triaza-cyclopenta[e]azulen-8-yl]-3-methoxy-propionamide] | 47 nM | 138 nM
30 | CC(=O)Nc1nc2c(s1)-c1c(c(-c3ccc(C)nc3)nn1-c1ccccc1F)CCC2 [Example B-17, N-[1-(2-Fluoro-phenyl)-3-(6-methyl-pyridin-3-yl)-1,4,5,6-tetrahydro-9-thia-1,2,7-triaza-cyclopenta[e]azulen-8-yl]-acetamide] | 53 nM | 114 nM
31 | NCC(=O)Nc1nc2c(s1)-c1c(c(-c3ccc(N)nc3)nn1-c1ccccc1F)CCC2 [Example B-101] | 22 nM | 96 nM
32 | CNc1ccc(-c2nn(-c3ccccc3Cl)c3c2CCCc2nc(NC(=O)N(C)C)sc2-3)cn1 [Example B-45] | 782 nM | 375 nM

Reference: patent US8288379B2, “Thia-triaza-cyclopentazulenes” (Boehringer Ingelheim International GmbH, priority 2009, dated 2012)
